Assay results: patent publication US10660877B2 (BRISTOL-MYERS SQUIBB COMPANY, priority 2016, dated 2020)
Read-outs that look alike come from different tables or passages of the source.

How the values were obtained:
human TLR9 = human TLR9 (Homo sapiens (Human), UniProt Q9NR96); test: TLR9 inhibition reporter assay (HEK-Blue cells, SEAP reporter, ODN2006 stimulation);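 further: compounds tested over 0.05 nM to 50 µM, 22 h incubation, inhibition taken as SEAP signal drop from agonist plus DMSO wells toward a known inhibitor control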
Chain of human TLR9 (Q9NR96 26-1032): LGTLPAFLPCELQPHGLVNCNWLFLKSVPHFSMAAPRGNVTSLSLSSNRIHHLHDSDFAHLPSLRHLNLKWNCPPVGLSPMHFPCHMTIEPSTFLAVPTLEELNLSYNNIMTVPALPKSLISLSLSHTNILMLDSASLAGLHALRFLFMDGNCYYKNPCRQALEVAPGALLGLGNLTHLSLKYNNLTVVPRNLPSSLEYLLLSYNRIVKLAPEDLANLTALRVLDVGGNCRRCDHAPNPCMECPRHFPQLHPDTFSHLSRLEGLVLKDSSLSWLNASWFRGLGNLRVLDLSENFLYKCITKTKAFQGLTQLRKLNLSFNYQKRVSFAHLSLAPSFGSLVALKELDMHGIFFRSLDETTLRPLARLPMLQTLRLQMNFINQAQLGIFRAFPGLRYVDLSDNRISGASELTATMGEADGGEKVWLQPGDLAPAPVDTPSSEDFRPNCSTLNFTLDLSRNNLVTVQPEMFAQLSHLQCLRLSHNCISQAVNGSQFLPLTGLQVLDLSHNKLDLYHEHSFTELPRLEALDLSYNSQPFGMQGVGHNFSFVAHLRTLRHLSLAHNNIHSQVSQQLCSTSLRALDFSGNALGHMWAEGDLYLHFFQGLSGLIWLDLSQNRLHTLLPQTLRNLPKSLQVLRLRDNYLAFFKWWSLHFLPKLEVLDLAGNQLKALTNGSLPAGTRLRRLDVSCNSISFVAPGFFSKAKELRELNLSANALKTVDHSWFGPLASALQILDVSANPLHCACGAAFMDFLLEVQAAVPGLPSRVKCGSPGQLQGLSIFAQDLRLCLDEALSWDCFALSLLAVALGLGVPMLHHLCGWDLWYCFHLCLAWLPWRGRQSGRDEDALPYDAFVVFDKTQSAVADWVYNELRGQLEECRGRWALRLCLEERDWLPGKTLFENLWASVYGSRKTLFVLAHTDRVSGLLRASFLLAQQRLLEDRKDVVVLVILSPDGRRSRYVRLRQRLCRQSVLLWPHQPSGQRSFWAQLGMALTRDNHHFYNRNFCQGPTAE

human TLR8 = human TLR8 (Homo sapiens (Human), UniProt Q9NR97); test: TLR8 inhibition reporter assay (HEK-Blue cells, SEAP reporter, R848 stimulation);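 further: compounds tested from 0.05 nM to 50 µM, 22 h at 37 °C, SEAP measured with HEK-Blue Detection, inhibition relative to agonist plus DMSO versus a known inhibitor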
Chain of human TLR8 (Q9NR97 27-1041): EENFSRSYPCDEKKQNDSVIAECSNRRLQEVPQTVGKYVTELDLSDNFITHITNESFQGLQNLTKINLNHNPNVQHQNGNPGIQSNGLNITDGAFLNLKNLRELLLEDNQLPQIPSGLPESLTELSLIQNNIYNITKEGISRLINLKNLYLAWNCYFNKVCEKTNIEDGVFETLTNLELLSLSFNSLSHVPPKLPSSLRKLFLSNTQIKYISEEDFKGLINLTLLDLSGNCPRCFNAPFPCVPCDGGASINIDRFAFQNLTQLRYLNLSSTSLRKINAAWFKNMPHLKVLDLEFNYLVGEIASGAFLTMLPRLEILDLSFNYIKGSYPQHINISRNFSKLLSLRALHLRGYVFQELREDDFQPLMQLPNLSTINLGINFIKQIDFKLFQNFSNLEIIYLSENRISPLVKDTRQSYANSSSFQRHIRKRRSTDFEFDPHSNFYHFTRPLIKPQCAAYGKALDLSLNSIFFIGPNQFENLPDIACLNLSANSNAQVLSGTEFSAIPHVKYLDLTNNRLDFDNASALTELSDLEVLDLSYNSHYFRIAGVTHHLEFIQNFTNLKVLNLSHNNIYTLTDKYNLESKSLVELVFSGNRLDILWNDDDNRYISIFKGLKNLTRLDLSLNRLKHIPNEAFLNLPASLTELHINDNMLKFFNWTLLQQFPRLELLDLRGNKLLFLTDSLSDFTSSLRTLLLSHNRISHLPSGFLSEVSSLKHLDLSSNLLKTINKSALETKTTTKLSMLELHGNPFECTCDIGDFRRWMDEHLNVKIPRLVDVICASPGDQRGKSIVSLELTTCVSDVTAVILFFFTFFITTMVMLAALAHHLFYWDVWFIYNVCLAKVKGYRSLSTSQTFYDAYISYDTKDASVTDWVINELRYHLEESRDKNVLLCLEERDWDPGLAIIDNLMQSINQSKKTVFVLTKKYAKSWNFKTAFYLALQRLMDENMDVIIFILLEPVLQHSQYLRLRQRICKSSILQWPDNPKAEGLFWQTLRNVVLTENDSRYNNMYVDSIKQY

human TLR7 = human TLR7 (Homo sapiens (Human), UniProt Q9NYK1); test: TLR7 inhibition reporter assay (HEK-Blue cells, SEAP reporter, gardiquimod stimulation); assay type: cell-based
Chain of human TLR7 (Q9NYK1 27-1049): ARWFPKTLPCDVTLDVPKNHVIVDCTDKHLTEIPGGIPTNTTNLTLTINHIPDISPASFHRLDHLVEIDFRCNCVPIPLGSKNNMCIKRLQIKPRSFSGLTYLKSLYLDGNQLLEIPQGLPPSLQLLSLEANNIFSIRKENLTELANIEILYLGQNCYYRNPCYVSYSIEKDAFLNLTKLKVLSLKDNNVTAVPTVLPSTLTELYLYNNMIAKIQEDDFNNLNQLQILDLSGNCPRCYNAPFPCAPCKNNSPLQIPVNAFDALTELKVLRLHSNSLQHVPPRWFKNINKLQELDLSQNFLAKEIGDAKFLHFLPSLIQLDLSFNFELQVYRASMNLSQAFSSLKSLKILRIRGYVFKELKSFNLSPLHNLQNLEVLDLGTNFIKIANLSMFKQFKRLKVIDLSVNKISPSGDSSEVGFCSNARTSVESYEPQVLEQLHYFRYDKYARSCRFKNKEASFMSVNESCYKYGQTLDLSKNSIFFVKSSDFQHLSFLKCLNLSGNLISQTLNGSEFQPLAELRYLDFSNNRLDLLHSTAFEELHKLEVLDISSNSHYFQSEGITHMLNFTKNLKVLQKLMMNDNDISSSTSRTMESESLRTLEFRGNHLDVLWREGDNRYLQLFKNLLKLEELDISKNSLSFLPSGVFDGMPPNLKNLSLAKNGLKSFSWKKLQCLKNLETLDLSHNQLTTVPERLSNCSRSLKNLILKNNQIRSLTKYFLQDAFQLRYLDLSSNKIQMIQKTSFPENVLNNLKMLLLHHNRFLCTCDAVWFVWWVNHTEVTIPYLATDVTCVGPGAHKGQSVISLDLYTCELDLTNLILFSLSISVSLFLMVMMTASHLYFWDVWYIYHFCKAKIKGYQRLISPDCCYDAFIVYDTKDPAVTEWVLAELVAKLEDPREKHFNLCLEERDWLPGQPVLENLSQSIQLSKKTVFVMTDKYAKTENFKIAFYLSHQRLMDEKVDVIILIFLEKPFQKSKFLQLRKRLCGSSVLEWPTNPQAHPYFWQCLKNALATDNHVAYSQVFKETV

[1] = read-out: TLR9 IC50, HEK-Blue cells overexpressing human TLR9, ODN2006 5 nM
[2] = read-out: TLR8 IC50, HEK-Blue cells overexpressing human TLR8, R848 15.9 μM
[3] = HEK-Blue cells overexpressing human TLR7, gardiquimod 7.5 μM
[4] = TLR9 IC50, HEK-Blue cells overexpressing human TLR9, ODN2006 5 nM
[5] = TLR8 IC50, HEK-Blue cells overexpressing human TLR8, R848 15.9 μM

Structure (SMILES)	IC50 (human TLR9; [1]) [µM]	IC50 (human TLR8; [2]) [µM]	IC50 (human TLR7; [3]) [µM]	IC50 (human TLR9; read-out: TLR9 IC50, HEK-Blue cells, ODN2006 5 nM) [µM]	IC50 (human TLR8; read-out: TLR8 IC50, HEK-Blue cells, R848 15.9 μM) [µM]	IC50 (human TLR7; HEK-Blue cells, gardiquimod 7.5 μM) [µM]	IC50 (human TLR9; [4]) [µM]	IC50 (human TLR8; [5]) [µM]
CCc1c(-c2ccnc(Cl)c2)[nH]c2ccc(C3CCN(C4CCN(CC(C)C)CC4)CC3)cc12 [Example 758, 2-(2-chloropyridin-4-yl)-3-ethyl-5-(1′-isobutyl-[1,4′-bipiperidin]-4-yl)-1H-indole]	0.751	0.136	0.967	–	–	–	–	–
Cc1cc(C(=O)N2CCC(c3ccc4[nH]c(-c5cc(C)nc(C)c5)c(C(C)C)c4c3)CC2)c(=O)[nH]n1 [Example 135, 4-(4-(2-(2,6-dimethylpyridin-4-yl)-3-isopropyl-1H-indol-5-yl)piperidine-1-carbonyl)-6-methylpyridazin-3 (2H)-one]	13.3	0.0999	0.0331	–	–	–	–	–
Cc1cc(-c2[nH]c3ccc(C4CCN(C(=O)c5cnn(C)c5)CC4)cc3c2C(C)C)cc(C)n1 [Example 132, (4-(2-(2,6-dimethylpyridin-4-yl)-3-isopropyl-1H-indol-5-yl)piperidin-1-yl)(1-methyl-1H-pyrazol-4-yl)methanone]	46.9	0.0908	0.0042	–	–	–	–	–
Cc1nccc(-c2[nH]c3ccc(C4CCN(C5COC5)CC4)cc3c2C(C)C)c1F [Example 730, 2-(3-fluoro-2-methylpyridin-4-yl)-3-isopropyl-5-(1-(oxetan-3-yl)piperidin-4-yl)-1H-indole]	9.41	0.0082	0.0092	–	–	–	–	–
CC(=O)N1CCC(N2CCC(c3ccc4[nH]c(-c5ccnc(C)c5)c(C(C)C)c4c3)CC2)CC1 [Example 827, 1-(4-(3-isopropyl-2-(2-methylpyridin-4-yl)-1H-indol-5-yl)-[1,4′-bipiperidin]-1′-yl)ethan-1-one]	–	–	–	0.753	0.0052	0.0127	–	–
Cc1cc(-c2[nH]c3ccc(C4CCN(C(=O)C5CC(=O)N(C)C5)CC4)cc3c2CC(F)F)cc(C)n1 (stereo not drawn) [Example 534, 4-(4-(3-(2,2-difluoroethyl)-2-(2,6-dimethylpyridin-4-yl)-1H-indol-5-yl)piperidine-1-carbonyl)-1-methylpyrrolidin-2-one]	45.4	0.66	0.0638	–	–	–	–	–
COCCN1CCN(C(=O)CN2CCC(c3ccc4[nH]c(-c5cc(C)nc(C)c5)c(C(C)C)c4c3)CC2)CC1 [Example 265, 2-(4-(2-(2,6-dimethylpyridin-4-yl)-3-isopropyl-1H-indol-5-yl)piperidin-1-yl)-1-(4-(2-methoxyethyl)piperazin-1-yl)ethan-1-one]	0.073	0.0028	0.0015	–	–	–	–	–
CNC(=O)CN1CCC(c2ccc3[nH]c(-c4cc(C)nc(C5CC5)c4)c(C(C)C)c3c2)CC1 [Example 503, 2-(4-(2-(2-cyclopropyl-6-methylpyridin-4-yl)-3-isopropyl-1H-indol-5-yl)piperidin-1-yl)-N-methylacetamide]	1.23	0.0241	0.0108	–	–	–	–	–
COC(C)CN1CCC(c2ccc3[nH]c(-c4cc(C)nc(C)c4)c(C(C)C)c3c2)CC1 (stereo not drawn) [Example 332, 2-(2,6-dimethylpyridin-4-yl)-3-isopropyl-5-(1-(2-methoxypropyl)piperidin-4-yl)-1H-indole]	0.396	0.0045	0.0052	–	–	–	–	–
Cc1cc(-c2[nH]c3ccc(C4CCN(CC(=O)N5CCC(F)(F)C5)CC4)cc3c2C(C)C)cc(C)n1 [Example 216, 1-(3,3-difluoropyrrolidin-1-yl)-2-(4-(2-(2,6-dimethylpyridin-4-yl)-3-isopropyl-1H-indol-5-yl)piperidin-1-yl)ethan-1-one]	–	–	0.0028	–	–	–	0.315	0.007
Cc1cc(-c2[nH]c3ccc(C4CCN(CC(=O)NC5CCC5)CC4)cc3c2C(C)C)cc(C)n1 [Example 213, N-cyclobutyl-2-(4-(2-(2,6-dimethylpyridin-4-yl)-3-isopropyl-1H-indol-5-yl)piperidin-1-yl) acetamide]	0.331	0.0138	0.0071	–	–	–	–	–
Cc1cc(-c2[nH]c3ccc(C4CCN(C(=O)CN(C)[C@@H]5CCOC5)CC4)cc3c2C(C)C)cc(C)n1 [Example 402, (R)-1-(4-(2-(2,6-dimethylpyridin-4-yl)-3-isopropyl-1H-indol-5-yl)piperidin-1-yl)-2-(methyl(tetrahydrofuran-3-yl)amino) ethan-1-one]	1.82	0.0611	0.0111	–	–	–	–	–
Cc1cc(-c2[nH]c3ccc(C4CCN(CC(=O)N5CC[C@H](O)C5)CC4)cc3c2C(C)C)cc(C)n1 [Example 273, (S)-2-(4-(2-(2,6-dimethylpyridin-4-yl)-3-isopropyl-1H-indol-5-yl)piperidin-1-yl)-1-(3-hydroxypyrrolidin-1-yl)ethan-1-one]	–	–	0.0015	–	–	–	0.066	0.0054
Cc1cc(-c2[nH]c3ccc(C4CCN(C(C)CF)CC4)cc3c2C(C)C)cc(C)n1 (stereo not drawn) [Example 472, 2-(2,6-dimethylpyridin-4-yl)-5-(1-(1-fluoropropan-2-yl)piperidin-4-yl)-3-isopropyl-1H-indole]	0.601	0.0132	0.0075	–	–	–	–	–
Cc1cc(-c2[nH]c3ccc(C4CCN(C(=O)CN5CCOC[C@@H]5CO)CC4)cc3c2C(C)C)cc(C)n1 [Example 405, (S)-1-(4-(2-(2,6-dimethylpyridin-4-yl)-3-isopropyl-1H-indol-5-yl)piperidin-1-yl)-2-(3-(hydroxymethyl)morpholino)ethan-1-one]	0.527	0.0129	0.0021	–	–	–	–	–
Cc1nccc(-c2[nH]c3ccc(C4CCN(C(=O)C5CC(=O)N(C)C5)CC4)cc3c2C(C)C)c1F (stereo not drawn) [Example 582, 4-(4-(2-(3-fluoro-2-methylpyridin-4-yl)-3-isopropyl-1H-indol-5-yl)piperidine-1-carbonyl)-1-methylpyrrolidin-2-one]	> 50	0.048	0.0301	–	–	–	–	–
CCCNC(=O)CN1CCC(c2ccc3[nH]c(-c4cc(C)nc(C)c4)c(C(C)C)c3c2)CC1 [Example 238, 2-(4-(2-(2,6-dimethylpyridin-4-yl)-3-isopropyl-1H-indol-5-yl)piperidin-1-yl)-N-propylacetamide]	0.942	0.0102	0.0052	–	–	–	–	–
Cc1cc(-c2[nH]c3ccc(C4CCN(C(=O)CN(C)CC(F)F)CC4)cc3c2C(C)C)cc(C)n1 [Example 422, 2-((2,2-difluoroethyl)(methyl)amino)-1-(4-(2-(2,6-dimethylpyridin-4-yl)-3-isopropyl-1H-indol-5-yl)piperidin-1-yl) ethan-1-one]	41.3	0.0734	0.0055	–	–	–	–	–
Cc1cc(-c2[nH]c3ccc(C4CCN(Cc5ccon5)CC4)cc3c2C(C)C)cc(C)n1 [Example 432, 3-((4-(2-(2,6-dimethylpyridin-4-yl)-3-isopropyl-1H-indol-5-yl)piperidin-1-yl)methyl)isoxazole]	0.646	0.0087	0.0056	–	–	–	–	–
Cc1cc(-c2[nH]c3ccc(C4CCN(CC(=O)N5CCC(F)CC5)CC4)cc3c2C(C)C)cc(C)n1 [Example 283, 2-(4-(2-(2,6-dimethylpyridin-4-yl)-3-isopropyl-1H-indol-5-yl)piperidin-1-yl)-1-(4-fluoropiperidin-1-yl)ethan-1-one]	0.248	0.0089	0.0026	–	–	–	–	–
CCN1CCC(c2ccc3[nH]c(-c4cc(C)nc(C)c4)c(C(C)C)c3c2)CC1 [Example 322, 2-(2,6-dimethylpyridin-4-yl)-5-(1-ethylpiperidin-4-yl)-3-isopropyl-1H-indole]	0.401	0.0037	0.0021	–	–	–	–	–
